# Measurements: patent US12522594B2, “2-heteroaryl-3-oxo-2,3-dihydropyridazine-4-carboxamides for the treatment of cancer” (Deutsches Krebsforschungszentrum, priority 2017, dated 2026)
# pIC50: −log10 of the molar value.
# How the values were obtained:
# Assay type in all cases: cell-based
# AHR [1] = biological target: T1, AHR (Homo sapiens, UniProt P35869); assay: In vitro assay 3: AHR-regulated CYP1A1 expression in human cell line (U937, qPCR, KA stimulation); conditions: U937 cells, 200 uM KA, 6 hours, CYP1A1 expression by qPCR; read-out: Assay 3: Hum CYP1A1 Antagonism IC50
# T1 sequence (P35869 11-848): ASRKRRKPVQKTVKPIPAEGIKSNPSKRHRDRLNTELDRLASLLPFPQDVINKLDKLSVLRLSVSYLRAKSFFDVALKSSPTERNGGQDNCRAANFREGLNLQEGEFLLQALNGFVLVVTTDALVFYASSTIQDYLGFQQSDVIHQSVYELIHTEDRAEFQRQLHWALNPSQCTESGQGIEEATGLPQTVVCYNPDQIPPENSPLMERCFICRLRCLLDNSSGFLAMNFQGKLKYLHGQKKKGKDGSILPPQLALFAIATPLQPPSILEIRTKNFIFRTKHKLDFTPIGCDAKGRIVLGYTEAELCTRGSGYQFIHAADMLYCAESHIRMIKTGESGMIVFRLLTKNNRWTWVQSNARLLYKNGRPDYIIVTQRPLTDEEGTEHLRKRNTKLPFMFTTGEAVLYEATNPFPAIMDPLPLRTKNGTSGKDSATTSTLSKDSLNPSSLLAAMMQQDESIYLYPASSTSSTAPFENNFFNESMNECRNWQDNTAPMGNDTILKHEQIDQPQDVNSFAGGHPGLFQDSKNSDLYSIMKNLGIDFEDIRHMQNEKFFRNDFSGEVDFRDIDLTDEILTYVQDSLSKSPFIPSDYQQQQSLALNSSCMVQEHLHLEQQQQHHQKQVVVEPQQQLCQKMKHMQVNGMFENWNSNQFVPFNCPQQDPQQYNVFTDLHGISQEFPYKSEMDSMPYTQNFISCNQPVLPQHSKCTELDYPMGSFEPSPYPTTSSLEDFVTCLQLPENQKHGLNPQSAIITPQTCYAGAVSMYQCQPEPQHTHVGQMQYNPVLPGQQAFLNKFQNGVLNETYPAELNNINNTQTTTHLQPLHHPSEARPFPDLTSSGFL
# In short: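 U937 human monocytic cells were stimulated with 200 uM KA for 6 h, with or without compound at eight concentrations from 1 nM to 3 uM, in duplicate. CYP1A1 mRNA was quantified by Taqman qPCR as fold expression normalised to HPRT. Unstimulated cells served as negative control.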
# AHR [2] = biological target: T1, AHR; assay: In vitro assay 1: antagonism in human cell line (transactivation assay, U87 cells prestimulated with kynurenic acid, DRE firefly luciferase reporter); parameters: host or cells: U87 glioblastoma cells, stably transfected with DRE firefly luciferase and renilla reporter constructs; conditions: 150 uM kynurenic acid, 20 hours, read-out: Assay 1: AHR-luc Hum Antagonism IC50
# In short: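 U87 glioblastoma cells with endogenous AHR, stably carrying a DRE-driven firefly luciferase reporter and a constitutive renilla reporter. Cells prestimulated with the AHR agonist kynurenic acid before compound addition; data normalized to positive and negative controls.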
# AHR [3] = biological target: T1, AHR; assay: In vitro assay 2: agonism in human cell line (transactivation assay, U87 cells, DRE firefly luciferase reporter); parameters: host or cells: U87 glioblastoma cells, stably transfected with DRE firefly luciferase and renilla reporter constructs; conditions: no kynurenic acid, 20 hours, read-out: Assay 2: AHR-luc Hum Agonism IC50
# In short: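 U87 glioblastoma cells with endogenous AHR, stably carrying DRE-driven firefly luciferase and constitutive renilla reporters. 300 uM kynurenic acid served as positive activation control; data normalized to positive and negative controls.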
SMILES,pIC50 (AHR [1]),pIC50 (AHR [2]),pIC50 (AHR [3])
"O=C(NC[C@H](O)C(F)(F)F)c1cc(-c2ccc(Cl)cc2)nn(-c2csc(Cl)c2)c1=O [Example 232, 6-(4-Chlorophenyl)-2-(5-chloro-3-thienyl)-3-oxo-N-[(2S)-3,3,3-trifluoro-2-hydroxypropyl]-2,3-dihydropyridazine-4-carboxamide]",8.13,8.09,< 4.70
"C[C@@H](NC(=O)c1cc(-c2ccc(C(F)(F)F)cc2)nn(-c2cccnc2)c1=O)C(C)(C)O [Example 234, N-[(2R)-3-Hydroxy-3-methylbutan-2-yl]-3-oxo-2-(pyridin-3-yl)-6-[4-(trifluoromethyl)phenyl]-2,3-dihydropyridazine-4-carboxamide]",8.02,8.07,< 4.70
"Cn1cc(-n2nc(-c3ccc(C(F)(F)F)cc3)cc(C(=O)N[C@H](CO)C3CC3)c2=O)cn1 [Example 238, N-[(1S)-1-Cyclopropyl-2-hydroxyethyl]-2-(1-methyl-1H-pyrazol-4-yl)-3-oxo-6-[4-(trifluoromethyl)phenyl]-2,3-dihydropyridazine-4-carboxamide]",7.83,8.01,< 4.70
"CC(C)(O)CNC(=O)c1cc(-c2ccc(Cl)cc2)nn(-c2csc(Cl)c2)c1=O [Example 250, 6-(4-Chlorophenyl)-2-(5-chloro-3-thienyl)-N-(2-hydroxy-2-methylpropyl)-3-oxo-2,3-dihydropyridazine-4-carboxamide]",7.98,7.77,< 4.70

# The remaining molecules from weak to strong by pIC50 (AHR [1]), led by results:
pIC50 (AHR [1]),pIC50 (AHR [2]),pIC50 (AHR [3]),SMILES
7.50,7.85,< 4.70,"Cn1cc(-n2nc(-c3ccc(C(F)(F)F)cc3)cc(C(=O)N[C@@H]3CCC[C@H]3O)c2=O)cn1 [Example 248, N-[(1R,2R)-2-Hydroxycyclo-pentyl]-2-(1-methyl-1H-pyrazol-4-yl)-3-oxo-6-[4-(trifluoromethyl)phenyl]-2,3-dihydropyridazine-4-carboxamide]"
7.64,7.97,< 4.70,"CC(C)(O)CNC(=O)c1cc(-c2ccc(C(F)(F)F)nc2)nn(-c2cnsc2)c1=O [Example 240, N-(2-Hydroxy-2-methylpropyl)-3-oxo-2-(1,2-thiazol-4-yl)-6-[6-(trifluoromethyl)pyridin-3-yl]-2,3-dihydropyridazine-4-carboxamide]"
7.94,8.22,< 4.70,"Cn1cc(-n2nc(-c3ccc(Cl)cc3)cc(C(=O)N[C@@H](C#N)CO)c2=O)cn1 [Example 227, 6-(4-Chlorophenyl)-N-[(1S)-1-cyano-2-hydroxyethyl]-2-(1-methyl-1H-pyrazol-4-yl)-3-oxo-2,3-dihydropyridazine-4-carboxamide]"
8.10,8.03,< 4.70,"O=C(NC[C@H](O)C(F)(F)F)c1cc(-c2ccc(Cl)cc2)nn(-c2cncnc2)c1=O [Example 237, 6-(4-Chlorophenyl)-3-oxo-2-(pyrimidin-5-yl)-N-[(2S)-3,3,3-trifluoro-2-hydroxypropyl]-2,3-dihydropyridazine-4-carboxamide]"
8.57,8.79,< 4.70,"Cn1cc(-n2nc(-c3ccc(C(F)(F)F)cc3)cc(C(=O)N[C@H](CO)CF)c2=O)cn1 [Example 211, N-[(2R)-1-Fluoro-3-hydroxypropan-2-yl]-2-(1-methyl-1H-pyrazol-4-yl)-3-oxo-6-[4-(trifluoromethyl)phenyl]-2,3-dihydropyridazine-4-carboxamide]"
8.71,8.47,< 4.70,"C[C@@H](CO)NC(=O)c1cc(-c2ccc(Cl)cc2)nn(-c2ccc(F)s2)c1=O [Example 220, 6-(4-Chlorophenyl)-2-(5-fluoro-2-thienyl)-N-[(2S)-1-hydroxypropan-2-yl]-3-oxo-2,3-dihydropyridazine-4-carboxamide]"
